# Reference: article PMC10033419, “Blocking NS3–NS4B interaction inhibits dengue virus in non-human primates” (Nature, 2023)
# Several values for one entry are separate records, joined by “and”; a condition that tells them apart may be missing. Equal entries are not always repeated. Where two headings read alike, the source gives them in different places.
# Tests used:
# DENV-3/C0360/94 = assay: Viraemia/survival study; format: in vivo, AG129 mice; conditions: for Viral RNA copies/mL [Log10]: Fig. 2j Viraemia DENV-3, BID, individual animals 1-5, LOD is 1.7
# Protocol: (§1) The UTMB is an Association for the Assessment and Accreditation of Laboratory and Care (AAALAC) International accredited facility. All of the procedures were reviewed and approved by the UTMB Institutional Animal Care and Use Committee. […] Male and female AG129 mice (n = 10 per group; aged 6–8 weeks) were housed at a maximum of 5 mice per cage in individually ventilated cages with food and water provided ad libitum. Allocation to experimental groups was performed randomly. […] Approximately 1 h after the first treatment, all of the animals were challenged by i.p. injection with 10^7 PFU DENV-1/West Pac, DENV-3/C0360/94 or DENV-4/703/4. Pretreatment with anti-flavivirus antibody 4G2 to increase disease severity by induction of ADE was not required as infection with DENV-1/West Pac, DENV-3/C0360/94 or DENV-4/703/4 in our models leads to severe disease (requiring euthanasia after >20% loss of body weight). Each treatment group was subdivided into two smaller groups (groups A and B; n = 5 each). Blood was collected on day 3 after infection from group A to measure viral RNA; samples were collected by retro-orbital bleed on day 3 after infection around 30 min before the morning treatment. In parallel, animals (groups A and B) were followed for lethality throughout the experiment. Viral RNA isolation from plasma and RT–qPCR analysis was performed using the methods described previously.
# (§2) For the viral kinetics studies and the delayed-treatment studies, a batch approach was applied to calculate the viral load AUC using the PΚ R package. This package estimates a mean AUC value for settings in which the animals are measured at varying timepoints within a treatment group. […] The AUC was calculated using the LOD (2.6 log10 copies per ml) as the lowest limit. […] In the delayed-treatment studies, the total viral load AUC for each of the compound-treated groups was calculated and compared with that of the vehicle-treated group. […] P values were adjusted using the Bonferroni multiple-comparison correction method. Note that P values lower than 0.0001 were rounded to 0.0001. For survival studies of DENV-1-, DENV-3- or DENV-4-infected mice, Fisher’s exact tests were used on day 6. P values were adjusted using the Bonferroni multiple-comparison correction method.
# DENV-4/703/4 = assay: Viraemia/survival study; format: in vivo, AG129 mice; conditions: for Viral RNA copies/mL [Log10]: Fig. 2k Viraemia DENV-4, BID, individual animals 1-5, LOD is 1.7
# Protocol: as §1, §2
# DENV-1/West Pac = assay: Viraemia/survival study; format: in vivo, AG129 mice; conditions: for Viral RNA copies/mL [Log10]: Fig. 2i Viraemia DENV-1, BID, individual animals 1-5, LOD is 1.7
# Protocol: as §1, §2
# Vero cells = assay: MTS/PMS toxicity assay; format: cell-based, African green monkey; conditions: EXP1-EXP3, read-out: CC50, single experiments
# Protocol: (§3) A potential toxic effect on host cells was tested in parallel, while omitting virus infection, using the MTS/PMS method (Promega) for Vero cells, or by high-content imaging for C6/36 cells, as described previously. […] RT–qPCR data were analysed using the QuantStudio 12K Flex software (v.1.2.3) or SDS v.1.2 Applied Biosystems software. Inhibition values for antiviral molecules were plotted using KaleidaGraph plotting software (v.4.03, Synergy Software).
# MTS/PMS toxicity assay = format: cell-based, African green monkey; conditions: African green monkey, Vero cells
# Protocol: as §3
# in vivo = conditions: both, Indian-origin, rhesus monkey, po
# [1] = format: in vivo, rhesus macaques
# Source text: WRAIR is fully accredited by AAALAC International.
# DENV-2/16681 = assay: NHP DENV-2 study, plasma viral RNA RT-qPCR; set-up: species or system rhesus macaques (M. mulatta); conditions: rhesus monkey, in vivo
# [2] = 60 or 6 mg per kg per day b.i.d.
# [3] = 60 or 6 mg per kg per day b.i.d., vehicle 0%
structure (smiles),measurement,setting,value
COc1cc(N[C@H](C(=O)c2c[nH]c3ccc(OC(F)(F)F)cc23)c2ccc(Cl)cc2OC)cc(S(C)(=O)=O)c1 [JNJ-1802],viral RNA load day 3 vs vehicle,DENV-3/C0360/94; [2],significantly reduced
same,survival until day 6,DENV-3/C0360/94; [3],100%
same,Survival [%],"DENV-3/C0360/94; DENV-3, 6 mg/kg/day BID, day 0 post-infection",100%
same,Survival [%],"DENV-3/C0360/94; DENV-3, 6 mg/kg/day BID, day 1 post-infection",100%
same,Survival [%],"DENV-3/C0360/94; DENV-3, 6 mg/kg/day BID, day 2 post-infection",100%
same,Survival [%],"DENV-3/C0360/94; DENV-3, 6 mg/kg/day BID, day 3 post-infection",100%
same,Survival [%],"DENV-3/C0360/94; DENV-3, 6 mg/kg/day BID, day 4 post-infection",100%
same,Survival [%],"DENV-3/C0360/94; DENV-3, 6 mg/kg/day BID, day 5 post-infection",100%
same,Survival [%],"DENV-3/C0360/94; DENV-3, 6 mg/kg/day BID, day 6 post-infection",100%
same,Survival [%],"DENV-3/C0360/94; DENV-3, 60 mg/kg/day BID, day 0 post-infection",100%
same,Survival [%],"DENV-3/C0360/94; DENV-3, 60 mg/kg/day BID, day 1 post-infection",100%
same,Survival [%],"DENV-3/C0360/94; DENV-3, 60 mg/kg/day BID, day 2 post-infection",100%
same,Survival [%],"DENV-3/C0360/94; DENV-3, 60 mg/kg/day BID, day 3 post-infection",100%
same,Survival [%],"DENV-3/C0360/94; DENV-3, 60 mg/kg/day BID, day 4 post-infection",100%
same,Survival [%],"DENV-3/C0360/94; DENV-3, 60 mg/kg/day BID, day 5 post-infection",100%
same,Survival [%],"DENV-3/C0360/94; DENV-3, 60 mg/kg/day BID, day 6 post-infection",100%
same,Viral RNA copies/mL [Log10],DENV-3/C0360/94; 6 mg/kg/day,1.7 copies/mL [Log10] and 2.037 copies/mL [Log10] and 2.373 copies/mL [Log10]
same,Viral RNA copies/mL [Log10],DENV-3/C0360/94; 60 mg/kg/day,1.7 copies/mL [Log10]
same,viral RNA load day 3 vs vehicle,DENV-4/703/4; [2],significantly reduced
same,survival until day 6,DENV-4/703/4; [3],100%
same,Survival [%],"DENV-4/703/4; DENV-4, 6 mg/kg/day BID, day 0 post-infection",100%
same,Survival [%],"DENV-4/703/4; DENV-4, 6 mg/kg/day BID, day 1 post-infection",100%
same,Survival [%],"DENV-4/703/4; DENV-4, 6 mg/kg/day BID, day 2 post-infection",100%
same,Survival [%],"DENV-4/703/4; DENV-4, 6 mg/kg/day BID, day 3 post-infection",100%
same,Survival [%],"DENV-4/703/4; DENV-4, 6 mg/kg/day BID, day 4 post-infection",100%
same,Survival [%],"DENV-4/703/4; DENV-4, 6 mg/kg/day BID, day 5 post-infection",100%
same,Survival [%],"DENV-4/703/4; DENV-4, 6 mg/kg/day BID, day 6 post-infection",100%
same,Survival [%],"DENV-4/703/4; DENV-4, 60 mg/kg/day BID, day 0 post-infection",100%
same,Survival [%],"DENV-4/703/4; DENV-4, 60 mg/kg/day BID, day 1 post-infection",100%
same,Survival [%],"DENV-4/703/4; DENV-4, 60 mg/kg/day BID, day 2 post-infection",100%
same,Survival [%],"DENV-4/703/4; DENV-4, 60 mg/kg/day BID, day 3 post-infection",100%
same,Survival [%],"DENV-4/703/4; DENV-4, 60 mg/kg/day BID, day 4 post-infection",100%
same,Survival [%],"DENV-4/703/4; DENV-4, 60 mg/kg/day BID, day 5 post-infection",100%
same,Survival [%],"DENV-4/703/4; DENV-4, 60 mg/kg/day BID, day 6 post-infection",100%
same,Viral RNA copies/mL [Log10],DENV-4/703/4; 6 mg/kg/day,1.7 copies/mL [Log10] and 4.048 copies/mL [Log10] and 3.88 copies/mL [Log10]
same,Viral RNA copies/mL [Log10],DENV-4/703/4; 60 mg/kg/day,1.7 copies/mL [Log10]
same,viral RNA load day 3 vs vehicle,DENV-1/West Pac; [2],significantly reduced
same,survival until day 6,"DENV-1/West Pac; 60 or 6 mg per kg per day b.i.d., vehicle 20%",100%
same,Survival [%],"DENV-1/West Pac; DENV-1, 6 mg/kg/day BID, day 0 post-infection",100%
same,Survival [%],"DENV-1/West Pac; DENV-1, 6 mg/kg/day BID, day 1 post-infection",100%
same,Survival [%],"DENV-1/West Pac; DENV-1, 6 mg/kg/day BID, day 2 post-infection",100%
same,Survival [%],"DENV-1/West Pac; DENV-1, 6 mg/kg/day BID, day 3 post-infection",100%
same,Survival [%],"DENV-1/West Pac; DENV-1, 6 mg/kg/day BID, day 4 post-infection",100%
same,Survival [%],"DENV-1/West Pac; DENV-1, 6 mg/kg/day BID, day 5 post-infection",100%
same,Survival [%],"DENV-1/West Pac; DENV-1, 6 mg/kg/day BID, day 6 post-infection",100%
same,Survival [%],"DENV-1/West Pac; DENV-1, 60 mg/kg/day BID, day 0 post-infection",100%
same,Survival [%],"DENV-1/West Pac; DENV-1, 60 mg/kg/day BID, day 1 post-infection",100%
same,Survival [%],"DENV-1/West Pac; DENV-1, 60 mg/kg/day BID, day 2 post-infection",100%
same,Survival [%],"DENV-1/West Pac; DENV-1, 60 mg/kg/day BID, day 3 post-infection",100%
same,Survival [%],"DENV-1/West Pac; DENV-1, 60 mg/kg/day BID, day 4 post-infection",100%
same,Survival [%],"DENV-1/West Pac; DENV-1, 60 mg/kg/day BID, day 5 post-infection",100%
same,Survival [%],"DENV-1/West Pac; DENV-1, 60 mg/kg/day BID, day 6 post-infection",100%
same,Viral RNA copies/mL [Log10],DENV-1/West Pac; 6 mg/kg/day,6.011 copies/mL [Log10] and 6.0187 copies/mL [Log10] and 7.037 copies/mL [Log10] and 6.709 copies/mL [Log10] and 6.244 copies/mL [Log10]
same,Viral RNA copies/mL [Log10],DENV-1/West Pac; 60 mg/kg/day,4.624 copies/mL [Log10] and 4.061 copies/mL [Log10] and 4.479 copies/mL [Log10] and 4.465 copies/mL [Log10] and 4.103 copies/mL [Log10]
same,CC50,Vero cells,> 2000 nM
same,CC50,"MTS/PMS toxicity assay; EXP1-EXP3, read-out: CC50, single experiments",2770 nM
same,CC50,"MTS/PMS toxicity assay; Vero, read-out: CC50",> 2260 nM
same,CC50,"MTS/PMS toxicity assay; mean, read-out: CC50 MEAN",> 2300 nM
same,CC50,"MTS/PMS toxicity assay; median, read-out: CC50 MEDIAN",> 2000 nM
same,bioavailability,in vivo,18 to 27%
same,AUC(0-t),in vivo; 0.18 mg/kg,491 ± 147 ng·h/mL
same,AUC(0-t),"in vivo; 0.18 mg/kg, AUC(0-24h)",227 ± 146 ng·h/mL
same,Cmax,"in vivo; 0.18 mg/kg, Cmax",15.1 ± 8.5 ng/mL
same,Tmax,"in vivo; 0.18 mg/kg, tmax",8 to 24 h
same,Weight change (%),"[1]; Day 1, individual animals",-0.3571% and -0.3226%
same,Weight change (%),"[1]; Day 3, individual animals",-0.3571%
same,Weight change (%),"[1]; Day 5, individual animals",0.3226%
same,Weight change (%),"[1]; Day 8, individual animals",1.143%
same,Weight change (%),"[1]; Day 9, individual animals",-1.29%
same,Weight change (%),"[1]; Day 10, individual animals",0.3226%
same,Weight change (%),"[1]; Day 29, individual animals",1.711%
same,Weight change (%),"[1]; Day -2, individual animals",-0.3571% and 0.3226%
same,DENV RNA in plasma,DENV-2/16681,undetectable DENV RNA levels throughout the study period
same,Viral load Assay 1 FLAG,DENV-2/16681,BLOQ (key: BLOQ = Below limit of detection)
same,Viral load Assay 2 FLAG,DENV-2/16681,BLOQ (key: BLOQ = Below limit of detection)
same,Viral load Assay 2 FLAG (2nd column),DENV-2/16681,BLOQ (key: BLOQ = Below limit of detection)
same,day first DENV-RNA positive (≥LLOQ),DENV-2/16681,5
same,"day first DENV-RNA positive (≥LLOQ), per animal",DENV-2/16681,21 and 6 and 10
same,peak viraemia,DENV-2/16681,comparable to the vehicle controls
